pIC50: −log10 of the molar value. Where two headings read alike, the source gives them in different places.
Columns and labels:
Kv11.1 (hERG) channel = Kv11.1 (hERG) channel (Homo sapiens (Human), UniProt Q12809); test: Kv11.1 ion channel binding assay (Predictor hERG fluorescence polarisation); details: class symbol marked with asterisk (*)
Description: D) Kv11.1 Ion Channel Binding Assay
Kv11.1 (hERG=human ether a go-go related […]) is a cardiac K^+ channel which should if possible not interact with the test substances. This interaction is determined quantitatively with the aid of the Predictor™ hERG Fluorescence Polarizations (FP) Assays from Life Technologies. In the case of this assay principle, cardiomyocyte cell membranes having a certain proportion of Kv11.1 channels are isolated. A dye-labelled Kv11.1 binding partner gives a high fluorescence polarisation signal by interaction with the Kv11.1. In the case of displacement of the dye, a reduction in the fluorescence polarisation signal occurs.
The assay is carried out automatically as follows: 15 nl of the test substances (highest concentration: 10 mM, 10 concentrations: dilution factors 1:3.16, DMSO) are transferred into an empty microtitre plates having 384 wells by means of an acoustic pipetter. 3 μl of the isolated membranes are subsequently added. Membranes and test substances are incubated at 22° C. for 15 min (+/−5 min). In the next step, the dye-labelled binding partner is added, followed by incubation at 22° C. After incubation for two hours, the measurement of the fluorescence polarisation is carried out on an Envision multimode Reader. Measured raw data are standardised with the aid of Genedata Assay Analyzer. The IC50 and % effect values are calculated in Genedata Condoseo.

[1] = system: phospho-serine 2056 DNA-PK in HCT116 cells; test: DNA-PK phosphorylation at serine 2056 (cellular), ELISA in bleomycin-treated HCT116 cells; assay type: cell-based; details: bleomycin-treated HCT116 cells, read-out: IC50 pDNA-PK
Summary of the method: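 After overnight seeding, HCT116 cells received compound with 10 μM bleomycin for 6 h; phospho-DNA-PK ELISA signals were scaled to total DNA-PKcs, DMSO serving as blank.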

[2] = Homo sapiens, HCT-116, phospho-serine 2056 DNA-PK

Chain of Kv11.1 (hERG) channel (Q12809 whole entry): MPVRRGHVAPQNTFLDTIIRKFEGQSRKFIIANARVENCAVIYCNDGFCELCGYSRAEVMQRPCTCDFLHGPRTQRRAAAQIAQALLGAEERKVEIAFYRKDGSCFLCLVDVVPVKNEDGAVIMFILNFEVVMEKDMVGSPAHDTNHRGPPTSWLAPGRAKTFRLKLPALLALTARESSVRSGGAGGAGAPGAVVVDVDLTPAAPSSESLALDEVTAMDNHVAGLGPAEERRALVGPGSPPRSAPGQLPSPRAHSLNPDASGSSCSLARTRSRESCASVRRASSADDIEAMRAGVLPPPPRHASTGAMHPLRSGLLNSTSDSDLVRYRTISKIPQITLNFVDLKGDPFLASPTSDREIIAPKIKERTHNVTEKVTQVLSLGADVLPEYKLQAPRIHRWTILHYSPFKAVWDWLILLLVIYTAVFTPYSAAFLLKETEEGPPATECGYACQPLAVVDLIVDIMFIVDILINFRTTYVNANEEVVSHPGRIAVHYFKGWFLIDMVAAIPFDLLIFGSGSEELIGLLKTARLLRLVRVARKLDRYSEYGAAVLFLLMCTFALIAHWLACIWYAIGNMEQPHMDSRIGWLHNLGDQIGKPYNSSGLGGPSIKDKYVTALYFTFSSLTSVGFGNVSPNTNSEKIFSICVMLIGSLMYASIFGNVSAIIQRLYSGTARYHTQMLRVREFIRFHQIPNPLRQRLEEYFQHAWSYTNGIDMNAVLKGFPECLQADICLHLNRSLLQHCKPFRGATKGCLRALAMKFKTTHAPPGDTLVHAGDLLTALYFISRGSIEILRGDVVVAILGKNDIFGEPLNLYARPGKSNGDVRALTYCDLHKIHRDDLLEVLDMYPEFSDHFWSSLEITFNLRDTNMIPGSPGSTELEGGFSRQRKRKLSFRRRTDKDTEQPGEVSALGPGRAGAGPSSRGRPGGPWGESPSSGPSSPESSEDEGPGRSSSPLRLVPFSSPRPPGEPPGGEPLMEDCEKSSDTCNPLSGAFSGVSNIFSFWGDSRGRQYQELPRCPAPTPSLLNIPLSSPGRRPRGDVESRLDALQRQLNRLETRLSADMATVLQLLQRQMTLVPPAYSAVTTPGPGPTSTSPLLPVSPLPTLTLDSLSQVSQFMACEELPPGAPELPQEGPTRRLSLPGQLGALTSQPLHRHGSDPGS

Row | pIC50 [1, 2] | pIC50 ([1]; phospho-serine 2056 DNA-PK) | Compound | Ki [Kv1.11 hERG] (Kv11.1 (hERG) channel)
1 | > 6.30 | – | Cc1nccnc1C(O)c1ccc(F)c(-c2ncnc3cc(N4CCOCC4)sc23)c1 (stereo not shown) [Example 245, [4-Fluoro-3-(6-morpholin-4-yl-thieno[3,2-d}-pyrimidin-4-yl)-phenyl]-(3-methyl-pyrazin-2-yl)-methanol] | A*
2 | 5.00 to 5.30 | – | OC(c1ccc(F)c(-c2ncnc3cc(N4CCOCC4)ccc23)c1)c1nccn2ncnc12 (stereo not shown) [Example 279, [4-Fluoro-3-(7-morpholin-4-yl-quinazolin-4-yl)-phenyl]-[1,2,4]-triazolo[1,5-a]-pyrazin-8-ylmethanol] | A*
3 | > 6.30 | – | COc1nccnc1C(O)c1cc(-c2ncnc3cc(N4CCOCC4)cc(F)c23)c(F)cc1Cl (stereo not shown) [Example 249, [2-Chloro-4-fluoro-5-(5-fluoro-7-morpholin-4-yl-quinazolin-4-yl)-phenyl]-(3-methoxy-pyrazin-2-yl)-methanol] | A*
4 | > 6.30 | – | Cc1nccnc1C(O)c1ccc(F)c(-c2ncnc3cc(N4CCOCC4)cc(F)c23)c1 (stereo not shown) [Example 268, [4-Fluoro-3-(5-fluoro-7-morpholin-4-yl-quinazolin-4-yl)-phenyl]-(3-methyl-pyrazin-2-yl)-methanol] | A*
5 | – | > 6.30 | COc1nccnc1C(O)c1cc(-c2ncnc3cc(N4CCOCC4)cc(F)c23)c(F)cc1Cl (stereo not shown) [Example 250, [2-Chloro-4-fluoro-5-(5-fluoro-7-morpholin-4-yl-quinazolin-4-yl)-phenyl]-(3-methoxy-pyrazin-2-yl)-methanol] | A*
6 | – | > 6.30 | COc1ccc(C(O)c2cc(-c3ncnc4cc(N5CCOCC5)cc(F)c34)c(F)cc2Cl)nn1 (stereo not shown) [Example 278, [2-chloro-4-fluoro-5-(5-fluoro-7-morpholin-4-ylquinazolin-4-yl)phenyl]-(6-methoxypyridazin-3-yl)methanol] | A*
7 | > 6.30 | – | Cc1nccnc1C(O)c1cc(-c2ncnc3cc(N4CCOCC4)sc23)c(F)cc1Cl (stereo not shown) [Example 264, [2-Chloro-4-fluoro-5-(6-morpholin-4-yl-thieno[3,2-d}-pyrimidin-4-yl)-phenyl]-(3-methyl-pyrazin-2-yl)-methanol] | A*
8 | 5.30 to 6.30 | – | Cc1nccnc1C(C(N)=O)c1cc(-c2ncnc3cc(N4CCOCC4)sc23)c(F)cc1Cl (stereo not shown) [Example 269, 2-[2-Chloro-4-fluoro-5-(6-morpholin-4-yl-thieno[3,2-d}-pyrimidin-4-yl)-phenyl]-2-(3-methyl-pyrazin-2-yl)-acetamide] | A*
9 | – | > 6.30 | [2H]C1([2H])OC([2H])([2H])C([2H])([2H])N(c2ccc3c(-c4cc(C(O)c5ccc(OC)nn5)c(Cl)cc4F)ncnc3c2)C1([2H])[2H] (stereo not shown) [Example 262, [2-Chloro-4-fluoro-5-[7-(2,2,3,3,5,5,6,6-octadeuterio-morpholin-4-yl)quinazolin-4-yl]phenyl]-(6-methoxypyridazin-3-yl)methanol] | A*
10 | – | > 6.30 | COc1nccnc1C(O)c1ccc(F)c(-c2ncnc3cc(N4CCOCC4)cc(F)c23)c1 (stereo not shown) [Example 267, [4-Fluoro-3-(5-fluoro-7-morpholin-4-yl-quinazolin-4-yl)-phenyl]-(3-methoxy-pyrazin-2-yl)-methanol] | A*
11 | – | > 6.30 | [2H]C1([2H])OC([2H])([2H])C([2H])([2H])N(c2ccc3c(-c4cc(C(O)c5nccnc5C)ccc4F)ncnc3c2)C1([2H])[2H] (stereo not shown) [Example 259, [4-Fluoro-3-[7-(2,2,3,3,5,5,6,6-octadeuterio-morpholin-4-yl)quinazolin-4-yl]phenyl]-(3-methyl-pyrazin-2-yl)-methanol] | A*
12 | 5.00 to 5.30 | – | Cc1nccnc1C(C(N)=O)c1ccc(F)c(-c2ncnc3cc(N4CCOCC4)sc23)c1 (stereo not shown) [Example 270, 2-[4-Fluoro-3-(6-morpholin-4-yl-thieno[3,2-d}-pyrimidin-4-yl)-phenyl]-2-(3-methyl-pyrazin-2-yl)-acetamide] | A*
13 | 5.30 to 6.30 | – | COc1ccc(C(C(N)=O)c2cc(-c3ncnc4cc(N5CCOCC5)sc34)c(F)cc2Cl)nn1 (stereo not shown) [Example 272, 2-[2-Chloro-4-fluoro-5-(6-morpholin-4-yl-thieno[3,2-d}-pyrimidin-4-yl)-phenyl]-2-(6-methoxy-pyridazin-3-yl)acetamide] | A*
14 | 4.52 to 5.00 | – | NC(=O)C(c1ccc(F)c(-c2ncnc3cc(N4CCOCC4)ccc23)c1)c1nccn2ncnc12 (stereo not shown) [Example 280, 2-[4-Fluoro-3-(7-morpholin-4-yl-quinazolin-4-yl)-phenyl]-2-[1,2,4]-triazolo[1,5-a]-pyrazin-8-yl-acetamide] | A*
15 | 4.52 to 5.00 | – | CNC(=O)C(c1cc(-c2ncnc3cc(N4CCOCC4)ccc23)c(F)cc1Cl)c1nccnc1C (stereo not shown) [Example 254, 2-[2-Chloro-4-fluoro-5-(7-morpholin-4-yl-quinazolin-4-yl)-phenyl]-N-methyl-2-(3-methyl-pyrazin-2-yl)acetamide] | A*
16 | 4.52 to 5.00 | – | COc1ccc(C(O)c2ccc(F)c(-c3ncnc4cc(N5CCOCC5)c(F)cc34)c2)nn1 (stereo not shown) [Example 282, [4-Fluoro-3-(6-fluoro-7-morpholin-4-yl-quinazolin-4-yl)-phenyl]-(6-methoxy-pyridazin-3-yl)-methanol] | A*
17 | – | > 6.30 | [2H]C1([2H])OC([2H])([2H])C([2H])([2H])N(c2ccc3c(-c4cc(C(O)c5nccnc5OC)c(Cl)cc4F)ncnc3c2)C1([2H])[2H] (stereo not shown) [Example 258, [2-Chloro-4-fluoro-5-[7-(2,2,3,3,5,5,6,6-octadeuterio-morpholin-4-yl)-quinazolin-4-yl- ]phenyl]-(3-methoxy-pyrazin-2-yl)-methanol] | A*
18 | – | > 6.30 | Cc1nccnc1C(O)c1ccc(F)c(-c2ncnc3cc(N4CCOCC4)sc23)c1 (stereo not shown) [Example 265, [4-Fluoro-3-(6-morpholin-4-yl-thieno[3,2-d}-pyrimidin-4-yl)-phenyl]-(3-methyl-pyrazin-2-yl)-methanol] | A*
19 | > 6.30 | – | Fc1cc(Cl)c(Cc2ccc3nccn3n2)cc1-c1ncnc2cc(N3CCOCC3)ccc12 [Example 235, 4-(4-Chloro-2-fluoro-5-imidazo[1,2-b]-pyridazin-6-ylmethyl-phenyl)-7-morpholin-4-ylquinazoline] | A*
20 | – | > 6.30 | COc1nccnc1C(O)c1cc(-c2ncnc3cc(N4CCOCC4)cc(F)c23)c(F)cc1Cl (stereo not shown) [Example 266, [2-Chloro-4-fluoro-5-(5-fluoro-7-morpholin-4-yl-quinazolin-4-yl)-phenyl]-(3-methoxy-pyrazin-2-yl)-methanol] | A*

Row | Compound | pIC50 [1, 2] | pIC50 ([1]; phospho-serine 2056 DNA-PK) | Ki [Kv1.11 hERG] (Kv11.1 (hERG) channel)
21 | CNC(=O)C(c1ccc2nccn2n1)c1cc(-c2ncnc3cc(N4CCOCC4)ccc23)c(F)cc1Cl (stereo not shown) [Example 236, 2-[2-Chloro-4-fluoro-5-(7-morpholin-4-yl-quinazolin-4-yl)-phenyl]-2-imidazo-[1,2-b]pyridazin-6-yl-N-methylacetamide] | 5.00 to 5.30 | – | A*
22 | COc1ccc(C(O)c2ccc(F)c(-c3ncnc4cc(N5CCOCC5)cc(F)c34)c2)nn1 (stereo not shown) [Example 255, [4-Fluoro-3-(5-fluoro-7-morpholin-4-yl-quinazolin-4-yl)-phenyl]-(6-methoxy-pyridazin-3-yl)-methanol] | > 6.30 | – | A*
23 | COc1ccc(C(O)c2ccc(F)c(-c3ncnc4cc(N5CCOCC5)cc(F)c34)c2)nn1 (stereo not shown) [Example 256, [4-Fluoro-3-(5-fluoro-7-morpholin-4-yl-quinazolin-4-yl)-phenyl]-(6-methoxy-pyridazin-3-yl)-methanol] | – | > 6.30 | A*

Source: US11065253B2, “Arylquinazolines” (Merck Patent GmbH, priority 2013, dated 2021)
